# Source: patent US7138361B2, “Herbicidal heterocycles” (E. I. du Pont de Nemours and Company, priority 2000, dated 2006)
# What was measured:
# Assay type in all cases: in vivo
# [1] = test system: Surinam grass (Brachiaria decumbens); assay: Test B postemergence; conditions: 13 to 15 days
# Outline: (§1)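 Post-treatment, species sat 13–15 days under greenhouse conditions before visual scoring against controls, 0 (no effect) through 100 (complete control). Application preemergence to sown seeds or postemergence at 1- to 4-leaf stage, using a non-phytotoxic solvent/surfactant formulation.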
# [2] = test system: barnyardgrass (Echinochloa crus-galli); assay: Test B postemergence; conditions: 13 to 15 days
# Outline: as §1
# [3] = test system: cocklebur (Xanthium strumarium); assay: Test B postemergence; conditions: 13 to 15 days
# Outline: as §1
# corn (Zea mays) [4] = assay: Test B postemergence; conditions: 13 to 15 days
# Outline: as §1
# [5] = test system: crabgrass (Digitaria sanguinalis); assay: Test B postemergence; conditions: 13 to 15 days
# Outline: as §1
# [6] = test system: giant foxtail (Setaria faberii); assay: Test B postemergence; conditions: 13 to 15 days
# Outline: as §1
# [7] = test system: morning glory (Ipomoea hederacea); assay: Test B postemergence; conditions: 13 to 15 days
# Outline: as §1
# [8] = test system: pigweed (Amaranthus retroflexus); assay: Test B postemergence; conditions: 13 to 15 days
# Outline: as §1
# [9] = test system: velvetleaf (Abutilon theophrasti); assay: Test B postemergence; conditions: 13 to 15 days
# Outline: as §1
# [10] = test system: wheat (Triticum aestivum); assay: Test B postemergence; conditions: 13 to 15 days
# Outline: as §1
# wild oat (Avena fatua) = assay: Test B postemergence; conditions: 13 to 15 days
# Outline: as §1
# Nightshade = assay: Test C preemergence
# Sunflower = assay: Test C preemergence; conditions: scale 0 to 100, 0 no effect, 100 complete control
# [11] = test system: common ragweed (Ambrosia elatior); assay: Test C preemergence
# Outline: (§2)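 Seeds are planted and treated before emergence; for the postemergence test, plants at 1- to 4-leaf stage (2–18 cm) receive the same formulation, a solvent blend containing surfactant. Plants stay in the greenhouse 12–14 days, then response is scored visually from 0 (none) to 100 (complete control).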
# corn (Zea mays) [12] = assay: Test C preemergence
# Outline: as §2
# [13] = test system: goosegrass (Eleusine indica); assay: Test C preemergence
# Outline: as §2
# [14] = test system: johnsongrass (Sorghum halepense); assay: Test C preemergence
# Outline: as §2
# [15] = test system: lambsquarters (Chenopodium album); assay: Test C preemergence
# Outline: as §2
# [16] = test system: morningglory (Ipomoea hederacea); assay: Test C preemergence
# Outline: as §2
# [17] = test system: velvetleaf (Abutilon theophrasti); assay: Test C preemergence
# Outline: as §2
# [18] = test system: yellow nutsedge (Cyperus esculentus); assay: Test C preemergence
# Outline: as §2
# [19] = Rate 125 g/ha, scale 0 (no effect) to 100 (complete control)
# [20] = Rate 500 g/ha, scale 0 to 100, 0 is no effect, 100 is complete control
# [21] = Rate 62 g/ha; scale 0 to 100, 0 no effect, 100 complete control
# [22] = Rate 125 g/ha, scale 0 to 100, 0 no effect, 100 complete control
# [23] = Rate 62 g/ha, scale 0 to 100, 0 no effect, 100 complete control
# [24] = preemergence, Rate 16 g/ha, scale 0 to 100
# [25] = preemergence, Rate 31 g/ha, scale 0 to 100
# [26] = preemergence, Rate 125 g/ha, scale 0 to 100, 0 no effect, 100 complete control
# [27] = preemergence, Rate 250 g/ha, scale 0 to 100, 0 no effect, 100 complete control
# [28] = preemergence, Rate 250 g/ha, visual evaluation after 12 to 14 days
smiles,measurement,setting,value
CC(C)(C)c1ccn(C2CCN(c3cccc(Cl)c3)C2=O)n1 (stereo not shown) [Compound 43],"Plant response rating, Surinam grass",[1]; [19],0
same,"Plant response rating, Surinam grass",[1]; [20],0
same,"Plant response rating, Barnyardgrass",[2]; [19],0
same,"Plant response rating, Barnyardgrass",[2]; [20],70
same,"Plant response rating, Cocklebur",[3]; [19],0
same,"Plant response rating, Cocklebur",[3]; [20],0
same,"Plant response rating, Corn",corn (Zea mays) [4]; [19],0
same,"Plant response rating, Corn",corn (Zea mays) [4]; [20],0
same,"Plant response rating, Crabgrass",[5]; [19],0
same,"Plant response rating, Crabgrass",[5]; [20],50
same,"Plant response rating, Foxtail, Giant",[6]; [19],0
same,"Plant response rating, Foxtail, Giant",[6]; [20],0
same,"Plant response rating, Morningglory",[7]; [19],0
same,"Plant response rating, Morningglory",[7]; [20],0
same,"Plant response rating, Pigweed",[8]; [19],50
same,"Plant response rating, Pigweed",[8]; [20],80
same,"Plant response rating, Velvetleaf",[9]; [19],0
same,"Plant response rating, Velvetleaf",[9]; [20],0
same,"Plant response rating, Wheat",[10]; [19],0
same,"Plant response rating, Wheat",[10]; [20],0
same,"Plant response rating, Wild Oat",wild oat (Avena fatua); [19],0
same,"Plant response rating, Wild Oat",wild oat (Avena fatua); [20],0
same,"Plant response rating, Nightshade","Nightshade; Rate 16 g/ha, scale 0 to 100",0
same,"Plant response rating, Nightshade","Nightshade; Rate 31 g/ha, scale 0 to 100",0
same,"Plant response rating, Nightshade",Nightshade; [21],0
same,"Plant response rating, Nightshade",Nightshade; [22],0
same,"Plant response rating, Sunflower",Sunflower; Rate 62 g/ha,0
same,"Plant response rating, Ragweed, Common",[11]; [23],0
same,"Plant response rating, Ragweed, Common",[11]; [24],0
same,"Plant response rating, Ragweed, Common",[11]; [25],0
same,"Plant response rating, Ragweed, Common",[11]; [26],30
same,"Plant response rating, Corn",corn (Zea mays) [12]; [23],0
same,"Plant response rating, Corn",corn (Zea mays) [12]; [24],0
same,"Plant response rating, Corn",corn (Zea mays) [12]; [25],0
same,"Plant response rating, Corn",corn (Zea mays) [12]; [26],0
same,"Plant response rating, Goosegrass",[13]; [23],50
same,"Plant response rating, Goosegrass",[13]; [24],0
same,"Plant response rating, Goosegrass",[13]; [25],0
same,"Plant response rating, Goosegrass",[13]; [26],90
same,"Plant response rating, Johnsongrass",[14]; [23],0
same,"Plant response rating, Johnsongrass",[14]; [24],0
same,"Plant response rating, Johnsongrass",[14]; [25],0
same,"Plant response rating, Johnsongrass",[14]; [26],50
same,"Plant response rating, Lambsquarters",[15]; [23],100
same,"Plant response rating, Lambsquarters",[15]; [24],100
same,"Plant response rating, Lambsquarters",[15]; [25],100
same,"Plant response rating, Lambsquarters",[15]; [26],100
same,"Plant response rating, Morningglory",[16]; [23],0
same,"Plant response rating, Morningglory",[16]; [24],0
same,"Plant response rating, Morningglory",[16]; [25],0
same,"Plant response rating, Morningglory",[16]; [26],0
same,"Plant response rating, Velvetleaf",[17]; [23],0
same,"Plant response rating, Velvetleaf",[17]; [24],0
same,"Plant response rating, Velvetleaf",[17]; [25],0
same,"Plant response rating, Velvetleaf",[17]; [26],0
same,"Plant response rating, Nutsedge",[18]; [23],0
same,"Plant response rating, Nutsedge",[18]; [24],0
same,"Plant response rating, Nutsedge",[18]; [25],0
same,"Plant response rating, Nutsedge",[18]; [26],30
COC(=O)c1cccc(N2CCC(n3ccc(C(C)(C)C)n3)C2=O)c1 (stereo not shown) [Compound 73],"Plant response rating, Surinam grass",[1]; [19],0
same,"Plant response rating, Surinam grass",[1]; [20],0
same,"Plant response rating, Barnyardgrass",[2]; [19],30
same,"Plant response rating, Barnyardgrass",[2]; [20],90
same,"Plant response rating, Cocklebur",[3]; [19],20
same,"Plant response rating, Cocklebur",[3]; [20],90
same,"Plant response rating, Corn",corn (Zea mays) [4]; [19],30
same,"Plant response rating, Corn",corn (Zea mays) [4]; [20],40
same,"Plant response rating, Crabgrass",[5]; [19],0
same,"Plant response rating, Crabgrass",[5]; [20],50
same,"Plant response rating, Foxtail, Giant",[6]; [19],20
same,"Plant response rating, Foxtail, Giant",[6]; [20],50
same,"Plant response rating, Morningglory",[7]; [19],20
same,"Plant response rating, Morningglory",[7]; [20],20
same,"Plant response rating, Pigweed",[8]; [19],20
same,"Plant response rating, Pigweed",[8]; [20],90
same,"Plant response rating, Velvetleaf",[9]; [19],50
same,"Plant response rating, Velvetleaf",[9]; [20],70
same,"Plant response rating, Wheat",[10]; [19],0
same,"Plant response rating, Wheat",[10]; [20],0
same,"Plant response rating, Wild Oat",wild oat (Avena fatua); [19],0
same,"Plant response rating, Wild Oat",wild oat (Avena fatua); [20],0
same,"Plant response rating, Nightshade","Nightshade; Rate 31 g/ha, scale 0 to 100",50
same,"Plant response rating, Nightshade",Nightshade; [21],60
same,"Plant response rating, Nightshade","Nightshade; Rate 125 g/ha; scale 0 to 100, 0 no effect, 100 complete control",80
same,"Plant response rating, Nightshade","Nightshade; Rate 250 g/ha, scale 0 to 100, 0 no effect, 100 complete control",100
same,"Plant response rating, Sunflower",Sunflower; Rate 125 g/ha,50
same,"Plant response rating, Ragweed, Common",[11]; [22],80
same,"Plant response rating, Ragweed, Common",[11]; [25],30
same,"Plant response rating, Ragweed, Common",[11]; [27],100
same,"Plant response rating, Corn",corn (Zea mays) [12]; [23],0
same,"Plant response rating, Corn",corn (Zea mays) [12]; [22],0
same,"Plant response rating, Corn",corn (Zea mays) [12]; [25],0
same,"Plant response rating (0 to 100), Corn",corn (Zea mays) [12]; [28],0
same,"Plant response rating, Goosegrass",[13]; [23],80
same,"Plant response rating, Goosegrass",[13]; [22],100
same,"Plant response rating, Goosegrass",[13]; [25],60
same,"Plant response rating (0 to 100), Goosegrass",[13]; [28],100
same,"Plant response rating, Johnsongrass",[14]; [23],20
same,"Plant response rating, Johnsongrass",[14]; [22],30
same,"Plant response rating, Johnsongrass",[14]; [25],0
same,"Plant response rating (0 to 100), Johnsongrass",[14]; [28],50
same,"Plant response rating, Morningglory",[16]; [23],30
same,"Plant response rating, Morningglory",[16]; [22],30
same,"Plant response rating, Morningglory",[16]; [25],30
same,"Plant response rating, Morningglory",[16]; [27],100
same,"Plant response rating, Velvetleaf",[17]; [22],50
same,"Plant response rating, Velvetleaf",[17]; [25],20
same,"Plant response rating, Velvetleaf",[17]; [27],60
same,"Plant response rating, Nutsedge",[18]; [23],0
same,"Plant response rating, Nutsedge",[18]; [22],30
same,"Plant response rating, Nutsedge",[18]; [25],0
same,"Plant response rating, Nutsedge",[18]; [27],50
